Measured values reported in patent US20240327375A1, “SUBSTITUTED HETEROBICYCLIC DERIVATIVES AS NEGATIVE ALLOSTERIC MODULATORS OF MGLU7 RECEPTOR” (priority 2021, published 2024).

target: T1, human mGlu7 (Homo sapiens, UniProt Q14831); assay: mGlu7 assay on HEK-expressing human mGlu7: fluorescent cell-based Ca2+ mobilization (FLIPR384), inhibition of EC80 L-AP4 response; details: HEK-293 cells expressing hmGlu7, EC80 L-AP4 stimulation; mean of at least three independent experiments in duplicate; read-out: Ca^2+ Flux (mean IC50)
T1 construct: expressed in transfected cells
T1 sequence (Q14831 35-922 isoform Q14831-2 limits assumed): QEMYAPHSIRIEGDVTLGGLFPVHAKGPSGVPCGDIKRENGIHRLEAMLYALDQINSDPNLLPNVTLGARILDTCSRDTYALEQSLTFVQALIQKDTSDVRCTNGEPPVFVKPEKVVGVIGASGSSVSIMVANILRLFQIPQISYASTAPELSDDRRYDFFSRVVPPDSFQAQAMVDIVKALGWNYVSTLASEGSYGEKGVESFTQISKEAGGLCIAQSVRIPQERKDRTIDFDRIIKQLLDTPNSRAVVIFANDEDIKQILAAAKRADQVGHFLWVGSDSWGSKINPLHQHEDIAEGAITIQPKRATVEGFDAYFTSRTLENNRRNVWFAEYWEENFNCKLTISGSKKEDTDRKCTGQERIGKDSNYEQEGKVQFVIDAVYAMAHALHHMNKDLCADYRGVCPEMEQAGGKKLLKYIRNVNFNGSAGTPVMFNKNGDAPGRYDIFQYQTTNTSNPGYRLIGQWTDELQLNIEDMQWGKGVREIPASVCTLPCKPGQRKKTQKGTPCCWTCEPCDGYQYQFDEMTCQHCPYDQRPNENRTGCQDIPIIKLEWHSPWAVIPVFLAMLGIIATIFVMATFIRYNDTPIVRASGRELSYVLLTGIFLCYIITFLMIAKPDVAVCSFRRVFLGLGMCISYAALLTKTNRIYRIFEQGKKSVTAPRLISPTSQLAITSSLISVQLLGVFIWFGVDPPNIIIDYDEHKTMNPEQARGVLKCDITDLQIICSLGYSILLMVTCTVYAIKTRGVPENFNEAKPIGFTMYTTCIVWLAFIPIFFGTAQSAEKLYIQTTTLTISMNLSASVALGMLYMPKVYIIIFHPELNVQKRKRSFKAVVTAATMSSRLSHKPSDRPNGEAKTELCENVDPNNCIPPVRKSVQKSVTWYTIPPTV
Source text: mGlu7 Assay on HEK-Expressing Human mGlu7
The cDNA encoding the human metabotropic glutamate 7 receptor (hmGlu7), (accession number NM_181874.2, NCBI Nucleotide database browser), was subcloned into an expression vector containing also the hygromycin resistance gene. In parallel, the cDNA encoding a G protein allowing redirection of the activation signal to intracellular calcium flux was subcloned into a different expression vector containing also the Puromycin resistance gene. Transfection of both these vectors into HEK293 cells with PolyFect reagent (Qiagen) according to supplier's protocol, and hygromycin and puromycin treatment allowed selection of antibiotic resistant cells which had integrated stably one or more copies of the plasmids. Positive cellular clones expressing hmGlu7 were identified in a functional assay measuring changes in calcium fluxes in response to glutamate and L-AP4 or known mGlu7 orthosteric antagonists.
HEK-293 cells expressing hmGlu7 were maintained in media containing DMEM, Fetal Bovine Serum (10%), Glutamax™ (2 mM), penicillin (100 units/mL), streptomycin (100 μg/mL), geneticin (100 μg/mL) and hygromycin-B (40 μg/mL) and puromycin (1 μg/mL) at 37° C. with 5% CO2 in a humidified atmosphere.
Fluorescent Cell Based- Ca^+ Mobilization Assay Human mGlu7 HEK-293 cells were plated out 24 hours prior to a fluorescent cell-based calcium mobilization assay using FLIPR^384 assay (Molecular Device, Sunnyvale, CA, USA) in black-walled, clear-bottomed, poly-L-ornithine-coated 384-well plates at a density of 25,000 cells/well in a glutamine/glutamate free DMEM medium containing fetal bovine serum (10%), penicillin (100 units/mL), streptomycin (100 μg/mL) and doxycyline (1 μg/ml) at 37° C. with 5% CO2 in a humidified atmosphere.
On the day of the assay, the medium was aspirated and the cells were loaded with a 3 μM solution of Fluo4-AM (LuBioScience, Lucerne, Switzerland) in 0.03% pluronic acid. After 1 hour at 37° C./5% CO2, the non incorporated dye was removed by washing cell plate with the assay buffer. All assays were performed in a pH 7.4 buffered-solution containing 20 mM HEPES, 143 mM NaCl, 6 mM KCl, 1 mM MgSO4, 1 mM CaCl2, 0.125 mM sulfinpyrazone and 0.1% glucose.
After 10 s of basal fluorescence recording, various concentrations of the compounds of the invention were added to the cells. Changes in fluorescence levels were first monitored for 180 s in order to detect any agonist activity of the compounds. Then the cells were stimulated by an EC80 L-AP4 concentration for an additional 110 s in order to measure inhibiting activities of the compounds of the invention. EC80 L-AP4 concentration is the concentration giving 80% of the maximal glutamate response.
The concentration-response curves of L-AP4 or representative compounds of the present invention were generated using the Prism GraphPad software (Graph Pad Inc, San Diego, USA). The curves were fitted to a four-parameter logistic equation: […]
allowing determination of IC50 values.
The Table 3 below represents the mean IC50 obtained from at least three independent experiments of selected molecules performed in duplicate.

Structure (SMILES)	IC50 [nM]
COc1cccc(-c2ccc3c(=O)n(-c4ncccc4F)ncc3c2)c1C [1-58]	< 100
CCn1ncc2cc(-c3cccc(N(C)C)c3)ccc2c1=O [1-6]	100 to 1000
COc1nccc(-c2ccc3c(=O)n(-c4ncccn4)ncc3c2)c1F [1-112]	1000 to 10000
CCOc1cccc(-c2ccc3c(=O)n(CC)ncc3c2)c1 [1-7]	100 to 1000
COc1cccc(-c2ccc3c(=O)n(-c4ncccn4)ncc3c2)c1C [1-42]	< 100
CN1CCCc2c(-c3ccc4c(=O)n(-c5ncccn5)ncc4c3)cccc21 [1-108]	< 100
O=c1c2ccc(-c3cccc(N4CCC4)c3)cc2cnn1Cc1ccccc1 [1-20]	100 to 1000
Cc1c(-c2ccc3c(=O)n(-c4ccccn4)ncc3c2)cccc1N1CCC1 [1-77]	< 100
COCCNc1cnc(-n2ncc3cc(-c4cccc(OC)c4C)ccc3c2=O)nc1 [1-79]	< 100
COc1cccc(-c2ccc3c(=O)n(-c4ccc(S(C)(=O)=O)cn4)ncc3c2)c1C [1-68]	100 to 1000
Cc1ccc(-c2ccc3c(=O)n(-c4ccncc4)ncc3c2)c(C)c1 [1-18]	100 to 1000
COc1cccc(-c2ccc3c(=O)n(-c4ncc(NCCN(C)C)cn4)ncc3c2)c1C [1-80]	< 100
COc1cccc(-c2ccc3c(=O)n(-c4ncc(N5CCC(N(C)C)C5)cn4)ncc3c2)c1C (stereo not shown) [1-101]	100 to 1000
COc1cccc(-c2ccc3c(=O)n(-c4ncccn4)ncc3c2)c1F [1-111]	< 100
O=c1c2ccc(-c3cccc4c3ccn4C3CC3)cc2cnn1-c1ccccn1 [1-47]	1000 to 10000
CCOc1cnc(-n2ncc3cc(-c4cccc(OC)c4C)ccc3c2=O)nc1 [1-85]	< 100
COc1cnc(-n2ncc3cc(-c4cccc5c4CCN5C)ccc3c2=O)nc1 [1-57]	< 100
O=c1c2ccc(-c3cccc(N4CCC4)c3)cc2cnn1-c1ccccn1 [1-45]	< 100
COc1ccccc1-n1ncc2cc(-c3cccc(N4CCC4)c3)ccc2c1=O [1-19]	100 to 1000
COc1cccc(-c2ccc3c(=O)n(-c4ccc(C(=O)NC5CCC(O)C5)cn4)ncc3c2)c1C (stereo not shown) [1-94]	< 100
CN1CCCc2c(-c3ccc4c(=O)n(-c5ccccn5)ncc4c3)cccc21 [1-61]	< 100
CCn1ncc2cc(-c3cccc(N4CCCC4)c3)ccc2c1=O [1-13, 2-Ethyl-6-(3-(pyrrolidin-1-yl)phenyl)phthalazin-1(2H)-one]	1000 to 10000
Cc1ccc(-c2ccc3c(=O)n(-c4ccccc4F)ncc3c2)c(C)c1 [1-4, 6-(2,4-Dimethylphenyl)-2-(2-fluorophenyl)phthalazin-1(2H)-one]	100 to 1000

Structure (SMILES)	IC50 [nM]
COc1cccc(-c2ccc3c(=O)n(-c4ncc(NCCn5ccnc5)cn4)ncc3c2)c1C [1-97]	< 100
COc1cccc(-c2ccc3c(=O)n(-c4ncc(N5CCCCC5)cn4)ncc3c2)c1C [1-71]	100 to 1000
COc1cccc(-c2ccc3c(=O)n(-c4ncc(N5CCCC(N(C)C)C5)cn4)ncc3c2)c1C (stereo not shown) [1-103]	100 to 1000
COc1cccc(-c2ccc3c(=O)n(-c4ncc(NC5CCC(O)CC5)cn4)ncc3c2)c1C (stereo not shown) [1-74]	< 100
COc1cccc(-c2ccc3c(=O)n(-c4ccccn4)ncc3c2)c1C [1-35]	< 100
Cc1ccc(-c2ccc3c(=O)n(-c4ccc(C(C)O)cc4)ncc3c2)c(C)c1 (stereo not shown) [1-14, 6-(2,4-Dimethylphenyl)-2-(4-(1-hydroxyethyl)phenyl)phthalazin-1(2H)-one]	100 to 1000
CCn1ncc2cc(-c3cccc(OC)c3)ccc2c1=O [1-3]	100 to 1000
Cc1cnc(-n2ncc3cc(-c4cccc5c4CCN5C)ccc3c2=O)nc1 [1-56]	< 100
COc1cccc(-c2ccc3c(=O)n(-c4ncc(NC5CCCC(O)C5)cn4)ncc3c2)c1C (stereo not shown) [1-75]	< 100
CNCCNc1cnc(-n2ncc3cc(-c4cccc(OC)c4C)ccc3c2=O)nc1 [1-105]	100 to 1000
Cc1c(OC2CC2)cccc1-c1ccc2c(=O)n(-c3ccccn3)ncc2c1 [1-36]	< 100
COc1cccc(-c2ccc3c(=O)n(-c4ccc(NC(=O)[C@@H]5CCCN5)cn4)ncc3c2)c1C [1-99]	100 to 1000
Cc1ccc(-c2ccc3c(=O)n(-c4ncc(N5CCOCC5)cn4)ncc3c2)c(C)c1 [1-81]	100 to 1000
COc1cccc(-c2ccc3c(=O)n(-c4ncc(N5CC6(COC6)C5)cn4)ncc3c2)c1C [1-84, 2-(5-(2-Oxa-6-azaspiro[3.3]heptan-6-yl)pyrimidin-2-yl)-6-(3-methoxy-2-methylphenyl)phthalazin-1(2H)-one]	100 to 1000
COc1cccc(-c2ccc3c(=O)n(-c4ccc(NC(=O)[C@@H](N)CO)cn4)ncc3c2)c1C [1-102]	< 100
CCn1ncc2cc(-c3c(C)cc(C)cc3C)ccc2c1=O [1-2]	100 to 1000
O=c1c2ccc(-c3cccc(N4CCC4)c3)cc2cnn1-c1ncc(F)cn1 [1-76]	< 100
COc1cccc(-c2ccc3c(=O)n(-c4ncc(NC(C)(C)CO)cn4)ncc3c2)c1C [1-100]	< 100
COc1cccc(-c2ccc3c(=O)n(-c4cccc(C)n4)ncc3c2)c1 [1-32]	100 to 1000
COc1cccc(-c2ccc3c(=O)n(-c4ncccc4F)ncc3c2)c1 [1-29]	100 to 1000
COc1cccc(-c2ccc3c(=O)n(-c4cc(C)ccn4)ncc3c2)c1 [1-30]	100 to 1000
O=c1c2ccc(-c3nccc(N4CCC4)n3)cc2cnn1-c1ccccn1 [1-50]	1000 to 10000
CCn1ncc2cc(-c3ccc(C)cc3C)ccc2c1=O [1-1, 6-(2,4-Dimethylphenyl)-2-ethylphthalazin-1(2H)-one]	100 to 1000

Structure (SMILES)	IC50 [nM]
COc1cccc(-c2ccc3c(=O)n(-c4ncc(OC5CNC5)cn4)ncc3c2)c1C [1-69]	100 to 1000
O=c1c2ccc(-c3cccc(OC4CC4)c3Cl)cc2cnn1-c1ncccn1 [1-41]	100 to 1000
O=c1c2ccc(-c3cccc(N4CCC4)c3)cc2cnn1-c1ncccn1 [1-46]	< 100
COc1cccc(-c2ccc3c(=O)n(-c4ncc(N5CCN(C)CC5)cn4)ncc3c2)c1C [1-63]	100 to 1000
Cc1ccc(-c2ccc3c(=O)n(-c4ncc(N5CCC(O)C5)cn4)ncc3c2)c(C)c1 (stereo not shown) [1-82]	< 100
O=c1c2ccc(-c3cc(N4CCC4)ccc3F)cc2cnn1-c1ccccn1 [1-52]	< 100
Cc1ccc(-c2ccc3c(=O)n(-c4ccc(S(C)(=O)=O)cc4)ncc3c2)c(C)c1 [1-8, 6-(2,4-Dimethylphenyl)-2-(4-(methylsulfonyl)phenyl)phthalazin-1(2H)-one]	100 to 1000
COc1cccc(-c2ccc3c(=O)n(-c4ncc(NCC(C)(C)N(C)C)cn4)ncc3c2)c1C [1-96]	100 to 1000
O=c1c2ccc(-c3cc(F)cc(N4CCC4)c3)cc2cnn1-c1ccccn1 [1-49]	100 to 1000
COc1cccc(-c2ccc3c(=O)n(-c4ncc(N5CCC(O)CC5)cn4)ncc3c2)c1C [1-72]	< 100
O=c1c2ccc(-c3cccc(N4CCC4)c3)cc2cnn1-c1ccc(F)cn1 [1-24, 6-(3-(Azetidin-1-yl)phenyl)-2-(5-fluoropyridin-2-yl)phthalazin-1(2H)-one]	100 to 1000
COc1cccc(-c2ccc3c(=O)n(-c4ncc(Cl)cn4)ncc3c2)c1C [1-90]	< 100
COc1cccc(-c2ccc3c(=O)n(-c4ncc(N5CCOCC5)cn4)ncc3c2)c1C [1-64]	< 100
COc1cccc(-c2ccc3c(=O)n(-c4ncc(NCCN5CCCC5)cn4)ncc3c2)c1C [1-95]	100 to 1000
COc1ccc(-c2ccc3c(=O)n(-c4ccccn4)ncc3c2)cc1 [1-17]	100 to 1000
COc1cccc(-c2ccc3c(=O)n(-c4ncc(N5CCCC5)cn4)ncc3c2)c1C [1-70]	100 to 1000
O=c1c2ccc(-c3cccc(N4CCC4)c3)cc2cnn1-c1ncc(N2CCC(O)C2)cn1 (stereo not shown) [1-83]	100 to 1000
COc1cccc(-c2ccc3c(=O)n(-c4ncc(N5CCCC(O)C5)cn4)ncc3c2)c1C (stereo not shown) [1-73]	< 100
Cc1ccc(-c2ccc3c(=O)n(-c4ccccc4Cl)ncc3c2)c(C)c1 [1-5, 2-(2-Chlorophenyl)-6-(2,4-dimethylphenyl)phthalazin-1(2H)-one]	100 to 1000
COc1cccc(-c2ccc3c(=O)n(-c4ncccn4)ncc3c2)c1Cl [1-40]	< 100
COc1cccc(-c2ccc3c(=O)n(-c4ccccn4)ncc3c2)c1Cl [1-33]	< 100
